Source: ChEMBL document CHEMBL1146130, “Benzoxazole benzenesulfonamides as allosteric inhibitors of fructose-1,6-bisphosphatase” (Bioorg Med Chem Lett, 2006)

system: not listed separately; experiment: Plasma clearance in rat at 5 mg/kg; assay type: ADME, organism-based; design: dose 5 mg/kg; conditions: not given

clearance | SMILES
0.667 mL/min/kg | O=S(=O)(Nc1nc2cc(Cl)ccc2o1)c1ccc2ccccc2c1

system: not listed separately; experiment: Oral bioavailability in rat at 5 mg/kg, po; assay type: ADME, organism-based; conditions: in vivo

bioavailability | SMILES
> 100% | O=S(=O)(Nc1nc2cc(Cl)ccc2o1)c1ccc2ccccc2c1

target: T1, Fructose-1,6-bisphosphatase 1 (Homo sapiens, UniProt P09467); experiment: Inhibition of human FBPase1; conditions: not given
T1 sequence (P09467 whole entry): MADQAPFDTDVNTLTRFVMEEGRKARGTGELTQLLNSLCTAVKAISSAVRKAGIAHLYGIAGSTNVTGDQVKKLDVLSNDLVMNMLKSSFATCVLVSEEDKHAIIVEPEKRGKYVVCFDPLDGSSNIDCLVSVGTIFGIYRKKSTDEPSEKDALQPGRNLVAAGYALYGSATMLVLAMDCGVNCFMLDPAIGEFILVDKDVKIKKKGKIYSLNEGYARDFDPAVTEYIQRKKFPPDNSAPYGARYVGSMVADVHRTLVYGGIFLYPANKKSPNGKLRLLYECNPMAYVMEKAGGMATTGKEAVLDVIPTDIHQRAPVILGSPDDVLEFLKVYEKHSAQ

SMILES | IC50
O=S(=O)(Nc1nc2cc(Cl)ccc2o1)c1cccc(-c2ccccc2)c1 | 9.8 µM
O=S(=O)(Nc1nc2c(I)cccc2o1)c1cc(Cl)ccc1Cl | > 50 µM
Cc1cccc2oc(NS(=O)(=O)c3cc(Cl)ccc3Cl)nc12 | 55 µM
O=S(=O)(Nc1nc2c(C3=CCNC=C3)cccc2o1)c1cc(Cl)ccc1Cl | > 50 µM
O=S(=O)(Nc1nc2cc(Cl)ccc2o1)c1ccc(OC(F)(F)F)cc1 | 7.8 µM
O=S(=O)(Nc1nc2ccc(Cl)cc2o1)c1cc(Cl)ccc1Cl | 8.1 µM
CCCCS(=O)(=O)Nc1nc2cc(Cl)ccc2o1 | > 50 µM
CS(=O)(=O)Nc1nc2cc(Cl)ccc2o1 | > 50 µM
CCCC(=O)Nc1ccc(S(=O)(=O)Nc2nc3cc(Cl)ccc3o2)cc1 | 12 µM
Cc1ccc2nc(NS(=O)(=O)c3cc(Cl)ccc3Cl)oc2c1 | 10 µM
COc1ccc2nc(NS(=O)(=O)c3cc(Cl)ccc3Cl)oc2c1 | 8 µM
O=S(=O)(Nc1nc2cc(Cl)ccc2o1)c1ccccc1 | 7.7 µM
O=S(=O)(Nc1nc2cc(Cl)ccc2o1)c1ccccc1-n1ccnc1 | 23 µM
O=S(=O)(Nc1nc2cc(Cl)ccc2o1)c1cccs1 | 13 µM
O=S(=O)(Nc1nc2cc(Cl)ccc2o1)c1c(Cl)cccc1Cl | > 50 µM
CC(C)(C)c1ccc2oc(NS(=O)(=O)c3cc(Cl)ccc3Cl)nc2c1 | 32 µM
Cn1cnc(S(=O)(=O)Nc2nc3cc(Cl)ccc3o2)c1 | 9.4 µM
CC(C)(C)c1ccc(COc2cccc(S(=O)(=O)Nc3nc4cc(Cl)ccc4o3)c2)cc1 | > 50 µM
CC(C)(C)c1ccc(S(=O)(=O)Nc2nc3cc(Cl)ccc3o2)cc1 | 24 µM
Cc1cccc(Cl)c1S(=O)(=O)Nc1nc2cc(Cl)ccc2o1 | > 50 µM

The next compounds have a lower IC50 than those just listed; values first:

IC50 | SMILES
6.7 µM | O=S(=O)(Nc1nc2cc(Cl)ccc2o1)c1ccc(-c2ccoc2)cc1
6.5 µM | O=S(=O)(Nc1nc2cc(Cl)ccc2o1)c1ccccc1Br
6.4 µM | Cc1ccc2oc(NS(=O)(=O)c3cc(Cl)ccc3Cl)nc2c1
6.2 µM | Cc1ccc(S(=O)(=O)Nc2nc3cc(Cl)ccc3o2)cc1
6 µM | N#Cc1ccccc1S(=O)(=O)Nc1nc2cc(Cl)ccc2o1
4 µM | O=S(=O)(Nc1nc2cc(Cl)ccc2o1)c1ccc(-c2ccccc2)cc1
4 µM | O=S(=O)(Nc1nc2cc(-c3ccoc3)ccc2o1)c1cc(Cl)ccc1Cl
3.8 µM | O=S(=O)(Nc1nc2cc(Cl)ccc2o1)c1ccccc1-c1ccccc1
3.4 µM | O=S(=O)(Nc1nc2cc(Cl)ccc2o1)c1ccc2cc3ccccc3cc2c1
3.4 µM | O=S(=O)(Nc1nc2cc(Cl)ccc2o1)c1cc(Cl)ccc1Cl
2.8 µM | O=S(=O)(Nc1nc2cc(Cl)ccc2o1)c1ccc(F)cc1
2.6 µM | COc1cc(-c2cccc(CN)c2)c2oc(NS(=O)(=O)c3cc(Cl)ccc3Cl)nc2c1
2.5 µM | O=S(=O)(Nc1nc2cc(Cl)ccc2o1)c1ccc2ccccc2c1
1.9 µM | O=S(=O)(Nc1nc2cc(Br)ccc2o1)c1cc(Cl)ccc1Cl
1.8 µM | O=[N+]([O-])c1cccc(S(=O)(=O)Nc2nc3cc(Cl)ccc3o2)c1
1.8 µM | COc1cc(-c2ccc(O)cc2)c2oc(NS(=O)(=O)c3cc(Cl)ccc3Cl)nc2c1
1.7 µM | COc1cc(-c2cccc(O)c2)c2oc(NS(=O)(=O)c3cc(Cl)ccc3Cl)nc2c1
1.3 µM | COc1cc(-c2ccc(N)cc2)c2oc(NS(=O)(=O)c3cc(Cl)ccc3Cl)nc2c1
1.3 µM | O=S(=O)(Nc1nc2cc(Cl)ccc2o1)c1cccc(Cl)c1

system: not listed separately; experiment: Half life in rat at 5 mg/kg, po; assay type: ADME, organism-based; design: dose 5 mg/kg, route oral; conditions: in vivo

half-life | SMILES
7.5 h | O=S(=O)(Nc1nc2cc(Cl)ccc2o1)c1ccc2ccccc2c1
